Measurements reported in PMC8151276, “An Integrated Approach toward NanoBRET Tracers for Analysis of GPCR Ligand Engagement” (Molecules, 2021).

Molecular target: T1, MC2R (Homo sapiens, UniProt Q01718)
T1 construct: purchased Promega (in-house HiBiT-GPCR construct library, NanoBRET)
Experiment: NanoBRET screen HiBiT-MC2R in HEK293
Format: binding
Experimental: Each tracer candidate was screened across the entire library of HiBiT-GPCR constructs using NanoBRET as the detection modality. As depicted in Figure 4A, the specificity of interactions was evaluated through decrease in BRET due to competitive displacement of a bound tracer by excess parental compound. Each tracer was analyzed for binding to each HiBiT-GPCR fusion in the absence and in the presence of competing parental compound. Briefly, HEK293 cells were transfected with HiBiT-GPCR constructs diluted into promoterless DNA to reduce expression and maximize translocation to the cell surface. Each tracer candidate was then screened at concentrations of 1 μM and 0.1 μM across cells expressing these fusions. Cells were treated for 1.5 h with tracer either alone or in the presence of 20 μM competing parental compound (i.e., control). BRET was measured upon addition of purified LgBiT and subsequent complementation with HiBiT genetically fused to a GPCR. The specificity of interactions was assessed through a decrease in BRET signal due to competitive displacement of the bound tracer. To further gauge the robustness of these interactions, the fold response over the control (i.e., BRETtracer/BRETcontrol) was calculated. We chose a 1.5-fold response, which translates to ≥7-fold signal over noise as the minimal threshold required to score an interaction as positive.
HiBiT-GPCR DNA constructs were diluted in 10 mM Tris pH 8 to a final concentration of 0.01 μg/μL, arrayed in 96-well plates and stored at −20 °C. For transfection, HEK293 cells were suspended in Opti-MEM (without phenol red) supplemented with 2% fetal bovine serum (Seradigm) and 100 units/mL penicillin–streptomycin (Gibco) at a final concentration of 220,000 cells/mL and dispensed into white 96-well plates at 90 μL/well. Subsequent transfections and screens were carried using an Agilent Bravo Automated Liquid Handling Platform. First, the 96-well HiBiT DNA arrays were diluted 25-fold in Opti-MEM (without serum or phenol red) to a final concentration of 0.0004 μg/μL and 20 μL of the diluted DNAs were transferred into new 96-well plates. Next, promoterless carrier DNA (1 μg/μL) was diluted 25-fold (0.04 μg/μL) and then dispensed into the diluted arrays at 20 μL/well. Following brief mixing, Viafect transfection reagent (Promega) diluted 16-fold into Opti-MEM was dispensed into the plates at 40 μL/well. After mixing by pipetting, plates were incubated for 10 min on the pipetting station deck. The DNA-transfection reagent complexes were then added to plates containing cells. To facilitate the screen, 10 μL of DNA-transfection reagent complexes were added in duplicates to the top 4 and bottom 4 rows, resulting in two identical 48-well arrays per plate. Plates with transfected cells were incubated for 18–20 h at 37 °C/5% CO2. A screen of each tracer across the entire library using two different concentrations requires duplicate plates of transfected cells. Depending on the number of tracers being screened, transfections can be scaled up using the same ratios. The next day, for each tracer, four 20× screening solutions in tracer dilution buffer (Promega) were prepared: two duplicates at final concentration of 20 μM and two duplicates at a final concentration of 2 μM. […] The four resulting solutions were diluted 4-fold in Opti-MEM without serum or phenol red to generate 5× solutions (5 µM and 0.5 µM tracer +/− 100 μM competing compound). To screen the library, a BioTek MultiFlo FX liquid dispenser was used to dispense 22.5 µL of tracer solution to the top 4 rows and 22.5 µL tracer + competing compound solution to the 4 bottom rows. Plates were briefly mixed on an orbital shaker and incubated for 1.5 h at room temperature. […] Plates were briefly mixed on an orbital shaker and incubated for 15 min to allow complementation.

T1 sequence (Q01718 whole entry): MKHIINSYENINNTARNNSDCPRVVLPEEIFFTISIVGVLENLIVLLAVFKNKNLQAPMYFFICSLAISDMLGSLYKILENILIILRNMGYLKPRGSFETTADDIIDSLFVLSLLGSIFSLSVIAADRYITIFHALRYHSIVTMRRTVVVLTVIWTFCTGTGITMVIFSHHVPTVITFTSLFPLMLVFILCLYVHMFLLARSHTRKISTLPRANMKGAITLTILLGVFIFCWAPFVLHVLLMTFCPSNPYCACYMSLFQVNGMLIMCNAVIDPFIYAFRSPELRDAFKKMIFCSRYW

Compound	NanoBRET Fold Response (MC2R, tracer 0.1μM)	NanoBRET Fold Response (MC2R, tracer 1μM)	other results
CCOC(=O)c1cc(C#N)c(N2CCC(C(=O)NS(=O)(=O)Cc3ccccc3/C=C/C(=O)NCCNC(=O)CCc3ccc4n3[B-](F)(F)[N+]3=C(c5ccc[nH]5)C=CC3=C4)CC2)nc1C [AZD1283-1-NB590]	–	–	NanoBRET Fold Response (MC2R, 0.1μM): 0.94; NanoBRET Fold Response (MC2R, 1μM): 1.02
N#CN=C(NCCCOc1cccc(CN2CCCCC2)c1)NCCNC(=O)CCOCCOCCOCCOCCNC(=O)CCc1ccc2n1[B-](F)(F)[N+]1=C(c3ccc[nH]3)C=CC1=C2 [Aminopotentidine-2-NB590]	0.97	0.92	–
CN(C)CCC=C1c2ccccc2CCc2ccc(C(=O)NCCNC(=O)CCOCCOCCOCCOCCNC(=O)CCc3ccc4n3[B-](F)(F)[N+]3=C(c5ccc[nH]5)C=CC3=C4)cc21 [Amitriptyline-b-2-NB590]	–	–	NanoBRET Fold Response (tracer at 0.1μM): 1.00; NanoBRET Fold Response (tracer at 1μM): 1.02
COc1ccc2c(n1)c(CCNC(C)=O)cn2CCNC(=O)CCc1ccc2n1[B-](F)(F)[N+]1=C(c3ccc[nH]3)C=CC1=C2 [Azamelatonin-1-NB590]	–	–	NanoBRET Fold Response (0.1μM tracer): 0.89; NanoBRET Fold Response (1μM tracer): 1.03
COc1ccc2[nH]c(-c3ccc(CNC(=O)CCOCCOCCOCCOCCNC(=O)CCc4ccc5n4[B-](F)(F)[N+]4=C(c6ccc[nH]6)C=CC4=C5)cc3)c(CCNC(C)=O)c2n1 [AzomelatoninICO9-2-NB590]	–	–	NanoBRET Fold Response (0.1μM tracer): 0.93; NanoBRET Fold Response (1μM tracer): 1.16
O=C(CCOCCOCCOCCOCCNC(=O)CCc1ccc2n1[B-](F)(F)[N+]1=C(c3ccc[nH]3)C=CC1=C2)NCCCN1CCN(C2=Nc3cc(Cl)ccc3Nc3ccccc32)CC1 [Clozapine-a-2-NB590]	–	–	NanoBRET Fold Response (MC2R, 0.1μM tracer): 0.97; NanoBRET Fold Response (MC2R, 1μM tracer): 0.97
CN1CCN(C2=Nc3cc(Cl)ccc3Nc3ccc(CNC(=O)CCOCCOCCOCCOCCNC(=O)CCc4ccc5n4[B-](F)(F)[N+]4=C(c6ccc[nH]6)C=CC4=C5)cc32)CC1 [Clozapine-b-2-NB590]	–	–	NanoBRET Fold Response (MC2R, 0.1μM tracer): 1.02; NanoBRET Fold Response (MC2R, 1μM tracer): 1.00
CN1CCN(C2=Nc3cc(Cl)ccc3N(CC(=O)NCCOCCOCCOCCOCCNC(=O)CCc3ccc4n3[B-](F)(F)[N+]3=C(c5ccc[nH]5)C=CC3=C4)c3ccccc32)CC1 [Clozapine-c-2-NB590]	–	–	NanoBRET Fold Response (MC2R, 0.1μM tracer): 0.99; NanoBRET Fold Response (MC2R, 1μM tracer): 1.11
O=C(CCOCCOCCOCCOCCNC(=O)CCc1ccc2n1[B-](F)(F)[N+]1=C(c3ccc[nH]3)C=CC1=C2)NCCCN1CCN(C2=Nc3ccccc3Oc3ccc(Cl)cc32)CC1 [Loxapine-a-2-NB590]	0.99	1.11	–
COc1ccccc1N1CCN(CCCCN2C(=O)c3ccc(CNC(=O)CCOCCOCCOCCOCCNC(=O)CCc4ccc5n4[B-](F)(F)[N+]4=C(c6ccc[nH]6)C=CC4=C5)cc3C2=O)CC1 [NAN-190-2-NB590]	0.96	–	–
COc1ccccc1N1CCN(CCCCN2C(=O)c3ccc(CNC(=O)CCOCCNC(=O)c4ccc(CNC(=O)CCc5ccc6n5[B-](F)(F)[N+]5=C(c7ccc[nH]7)C=CC5=C6)cc4)cc3C2=O)CC1 [NAN-190-3-NB590]	1.02	0.96	–
O=C(CCc1ccc2n1[B-](F)(F)[N+]1=C(c3ccc[nH]3)C=CC1=C2)NCc1ccc(C(=O)NCCOCCC(=O)N[C@@H]2CC[C@@]3(O)[C@H]4Cc5ccc(O)c6c5[C@@]3(CCN4CC3CC3)[C@H]2O6)cc1 [Naltrexone-3-NB590]	0.75	1.15	–
Cc1cc2c(s1)Nc1ccccc1N=C2N1CCN(CCCNC(=O)CCOCCOCCOCCOCCNC(=O)CCc2ccc3n2[B-](F)(F)[N+]2=C(c4ccc[nH]4)C=CC2=C3)CC1 [Olanzapine-a-2-NB590]	0.98	1.21	–
O=C(CCc1ccc2n1[B-](F)(F)[N+]1=C(c3ccc[nH]3)C=CC1=C2)NCc1ccc(C(=O)NCCOCCOCCNCC(O)COc2cccc3ccccc23)cc1 (stereo not drawn) [Propranolol-3-NB590]	–	–	NanoBRET Fold Response (MC2R, 1μM): 1.03
O=C(CCc1ccc2n1[B-](F)(F)[N+]1=C(c3ccc[nH]3)C=CC1=C2)NCCOCCOCCNC(=O)OCCOCCN1CCN(C2=Nc3ccccc3Sc3ccccc32)CC1 [Quetiapine-a-2-NB590]	0.98	0.95	–
Cc1nc2n(c(=O)c1CCN1CCC(c3noc4cc(F)ccc34)CC1)CCCC2OC(=O)NCCOCCOCCOCCOCCNC(=O)CCc1ccc2n1[B-](F)(F)[N+]1=C(c3ccc[nH]3)C=CC1=C2 (stereo not drawn) [Risperidone-2-NB590]	1.04	1.06	–
CC(C)N(CC[C@H](c1ccccc1)c1cc(CCNC(=O)CCOCCOCCOCCOCCNC(=O)CCc2ccc3n2[B-](F)(F)[N+]2=C(c4ccc[nH]4)C=CC2=C3)ccc1O)C(C)C [Tolterodine-2-NB590]	1.08	1.10	–
CC(C)N(CC[C@H](c1ccccc1)c1cc(CCNC(=O)c2ccc(CNC(=O)CCc3ccc4n3[B-](F)(F)[N+]3=C(c5ccc[nH]5)C=CC3=C4)cc2)ccc1O)C(C)C [Tolterodine-BZ-NB590]	0.88	1.06	–
CCCn1c(=O)c2[nH]c(-c3ccc(OCC(=O)NCCNC(=O)CCOCCNC(=O)c4ccc(CNC(=O)CCc5ccc6n5[B-](F)(F)[N+]5=C(c7ccc[nH]7)C=CC5=C6)cc4)cc3)nc2n(CCC)c1=O [XAC-3-NB590]	1.02	1.05	–
